In ChEMBL document CHEMBL2169878 (J Med Chem, 2012) one finds Activity, CC50 and IC50 data, which are given here for two compounds.

Series [1] relates to Salmonella typhimurium. Nature of the series: Mutagenicity against Salmonella typhimurium TA100 assessed as revertants at 6 uM incubated for 90 mins followed by drug washout measured after 2 days relative to positive control. It counts as toxicity, organism-based. As to conditions: salmonella enterica subsp. enterica serovar typhimurium, 1.5 h.
Series [2] relates to Salmonella typhimurium. The series is described as follows: Mutagenicity against Salmonella typhimurium TA98 assessed as revertants at 24 uM incubated for 90 mins followed by drug washout measured after 2 days relative to positive control. As to conditions: salmonella enterica subsp. enterica serovar typhimurium, 1.5 h. It counts as toxicity, organism-based.
Series [3] can be described thus: Cytotoxicity against human HepG2 cells after 24 hrs by neutral red dye uptake assay. It counts as cell-based. As to conditions: read-out: TC50.
Series [4] has as its system Plasmodium falciparum. Nature of the series: Antiplasmodial activity against chloroquine-resistant Plasmodium falciparum W2 infected in human RBC after 72 hrs by parasite lactate dehydrogenase assay. The class given is functional, organism-based. The conditions noted are these: W2, 72 h.
The test system of series [5] is Salmonella typhimurium. The series is described as follows: Mutagenicity against Salmonella typhimurium TA100 assessed as revertants at 24 uM incubated for 90 mins followed by drug washout measured after 2 days relative to positive control. The class given is toxicity, organism-based. The conditions noted are these: salmonella enterica subsp. enterica serovar typhimurium.

Series [6] has as its system Salmonella typhimurium. Nature of the series: Mutagenicity against Salmonella typhimurium TA98 assessed as revertants at 3 uM incubated for 90 mins followed by drug washout measured after 2 days relative to positive control. It counts as toxicity, organism-based. The conditions noted are these: salmonella enterica subsp. enterica serovar typhimurium, 1.5 h.
The subject of series [7] is Salmonella typhimurium. The series is described as follows: Mutagenicity against Salmonella typhimurium TA100 assessed as revertants at 12 uM incubated for 90 mins followed by drug washout measured after 2 days relative to positive control. The class given is toxicity, organism-based. The conditions noted are these: salmonella enterica subsp. enterica serovar typhimurium.

In series [8] the test system is Plasmodium falciparum. The series is described as follows: Antiplasmodial activity against chloroquine-sensitive Plasmodium falciparum D10 infected in human RBC after 72 hrs by parasite lactate dehydrogenase assay. It counts as functional, organism-based. The conditions noted are these: D10, 72 h.
The subject of series [9] is Salmonella typhimurium. Nature of the series: Mutagenicity against Salmonella typhimurium TA98 assessed as revertants at 48 uM incubated for 90 mins followed by drug washout measured after 2 days relative to positive control. The class given is toxicity, organism-based. The conditions noted are these: salmonella enterica subsp. enterica serovar typhimurium, 1.5 h.
Series [10] deals with Plasmodium falciparum. The series is described as follows: Antiplasmodial activity against chloroquine-sensitive Plasmodium falciparum NF54 infected in human erythrocytes assessed as inhibition of [3H]hypoxanthine incorporation incubated for 48 hrs prior to [3H]hypoxanthine addition measured after 48 hrs by liquid scintillation counting. It counts as functional, organism-based.

Series [11] deals with Salmonella typhimurium. Nature of the series: Mutagenicity against Salmonella typhimurium TA100 assessed as revertants at 48 uM incubated for 90 mins followed by drug washout measured after 2 days relative to positive control. The class given is toxicity, organism-based. The conditions noted are these: salmonella enterica subsp. enterica serovar typhimurium.
In series [12] the test system is Salmonella typhimurium. The series is described as follows: Mutagenicity against Salmonella typhimurium TA100 assessed as revertants at 3 uM incubated for 90 mins followed by drug washout measured after 2 days relative to positive control. The class given is toxicity, organism-based. The conditions noted are these: salmonella enterica subsp. enterica serovar typhimurium, 1.5 h.

The subject of series [13] is Plasmodium falciparum. The series is described as follows: Antiplasmodial activity against chloroquine-resistant Plasmodium falciparum K1 infected in human erythrocytes assessed as inhibition of [3H]hypoxanthine incorporation incubated for 48 hrs prior to [3H]hypoxanthine addition measured after 48 hrs by liquid scintillation counting. The class given is functional, organism-based.

Series [14] has as its system Salmonella typhimurium. Nature of the series: Mutagenicity against Salmonella typhimurium TA100 assessed as revertants at 1.5 uM incubated for 90 mins followed by drug washout measured after 2 days relative to positive control. The class given is toxicity, organism-based. As to conditions: salmonella enterica subsp. enterica serovar typhimurium, 1.5 h.
Series [15] is described as follows: Cytotoxicity against mouse NIH3T3 cells after 24 hrs by neutral red dye uptake assay. It counts as cell-based. The conditions noted are these: read-out: TC50.
In series [16] the test system is Salmonella typhimurium. The series is described as follows: Mutagenicity against Salmonella typhimurium TA98 assessed as revertants at 1.5 uM incubated for 90 mins followed by drug washout measured after 2 days relative to positive control. The class given is toxicity, organism-based. As to conditions: salmonella enterica subsp. enterica serovar typhimurium, 1.5 h.

Series [17] relates to Salmonella typhimurium. Nature of the series: Mutagenicity against Salmonella typhimurium TA98 assessed as revertants at 12 uM incubated for 90 mins followed by drug washout measured after 2 days relative to positive control. It counts as toxicity, organism-based. The conditions noted are these: salmonella enterica subsp. enterica serovar typhimurium.
Series [18] relates to Salmonella typhimurium. Nature of the series: Mutagenicity against Salmonella typhimurium TA98 assessed as revertants at 6 uM incubated for 90 mins followed by drug washout measured after 2 days relative to positive control. As to conditions: salmonella enterica subsp. enterica serovar typhimurium, 1.5 h. It counts as toxicity, organism-based.
Series [19] concerns Salmonella typhimurium. The series is described as follows: Mutagenicity against Salmonella typhimurium TA98 assessed as revertants at 33 uM incubated for 90 mins followed by drug washout measured after 2 days relative to positive control. The class given is toxicity, organism-based. As to conditions: salmonella enterica subsp. enterica serovar typhimurium, 1.5 h.
Series [20] deals with Salmonella typhimurium. Nature of the series: Mutagenicity against Salmonella typhimurium TA100 assessed as revertants at 2 uM incubated for 90 mins followed by drug washout measured after 2 days relative to positive control. It counts as toxicity, organism-based. The conditions noted are these: salmonella enterica subsp. enterica serovar typhimurium.
Series [21] relates to Salmonella typhimurium. The series is described as follows: Mutagenicity against Salmonella typhimurium TA100 assessed as revertants at 4 uM incubated for 90 mins followed by drug washout measured after 2 days relative to positive control. As to conditions: salmonella enterica subsp. enterica serovar typhimurium, 1.5 h. The class given is toxicity, organism-based.
The test system of series [22] is Salmonella typhimurium. Nature of the series: Mutagenicity against Salmonella typhimurium TA98 assessed as revertants at 17 uM incubated for 90 mins followed by drug washout measured after 2 days relative to positive control. The class given is toxicity, organism-based. As to conditions: salmonella enterica subsp. enterica serovar typhimurium.
Series [23] has as its system Salmonella typhimurium. The series is described as follows: Mutagenicity against Salmonella typhimurium TA98 assessed as revertants at 2 uM incubated for 90 mins followed by drug washout measured after 2 days relative to positive control. It counts as toxicity, organism-based. As to conditions: salmonella enterica subsp. enterica serovar typhimurium, 1.5 h.
The test system of series [24] is Salmonella typhimurium. Nature of the series: Mutagenicity against Salmonella typhimurium TA100 assessed as revertants at 33 uM incubated for 90 mins followed by drug washout measured after 2 days relative to positive control. The conditions noted are these: salmonella enterica subsp. enterica serovar typhimurium, 1.5 h. The class given is toxicity, organism-based.

The test system of series [25] is Salmonella typhimurium. Nature of the series: Mutagenicity against Salmonella typhimurium TA98 assessed as revertants at 8 uM incubated for 90 mins followed by drug washout measured after 2 days relative to positive control. The class given is toxicity, organism-based. As to conditions: salmonella enterica subsp. enterica serovar typhimurium, 1.5 h.
The subject of series [26] is Salmonella typhimurium. The series is described as follows: Mutagenicity against Salmonella typhimurium TA100 assessed as revertants at 66 uM incubated for 90 mins followed by drug washout measured after 2 days relative to positive control. The conditions noted are these: salmonella enterica subsp. enterica serovar typhimurium. It counts as toxicity, organism-based.

Series [27] relates to Salmonella typhimurium. Nature of the series: Mutagenicity against Salmonella typhimurium TA100 assessed as revertants at 9 uM incubated for 90 mins followed by drug washout measured after 2 days relative to positive control. As to conditions: salmonella enterica subsp. enterica serovar typhimurium, 1.5 h. The class given is toxicity, organism-based.
Series [28] concerns Salmonella typhimurium. The series is described as follows: Mutagenicity against Salmonella typhimurium TA100 assessed as revertants at 17 uM incubated for 90 mins followed by drug washout measured after 2 days relative to positive control. The conditions noted are these: salmonella enterica subsp. enterica serovar typhimurium. The class given is toxicity, organism-based.
Series [29] has as its system Salmonella typhimurium. The series is described as follows: Mutagenicity against Salmonella typhimurium TA98 assessed as revertants at 66 uM incubated for 90 mins followed by drug washout measured after 2 days relative to positive control. The class given is toxicity, organism-based. As to conditions: salmonella enterica subsp. enterica serovar typhimurium.
Series [30] deals with Salmonella typhimurium. The series is described as follows: Mutagenicity against Salmonella typhimurium TA98 assessed as revertants at 4 uM incubated for 90 mins followed by drug washout measured after 2 days relative to positive control. The class given is toxicity, organism-based. As to conditions: salmonella enterica subsp. enterica serovar typhimurium.

Structures are written as SMILES.

As to `COc1ccc2nccc(NC(c3cccc(Cl)c3)c3ccc(CN4CCCC4)c(Cl)c3)c2c1` (racemic), the Activity came to 4% in the series on Salmonella typhimurium [1]; 3% in the series with Salmonella typhimurium [2]; 5% in the series on Salmonella typhimurium [5]; 0% with Salmonella typhimurium [6]; 4% with Salmonella typhimurium [7]; 3% with Salmonella typhimurium [9]. For the same compound, the Activity was 10% in the series on Salmonella typhimurium [11]; 4% in the series on Salmonella typhimurium [12]; 3% in the series on Salmonella typhimurium [14]; 3% in the series with Salmonella typhimurium [16]; 3% in the series with Salmonella typhimurium [17]; 0% in the series with Salmonella typhimurium [18]. Further, the CC50 at 24 h in series [3] was 12000 nM; in series [15] it was 24000 nM. Also, the half-maximal inhibitory concentration (IC50) in the series on Plasmodium falciparum [4] came out at 90 nM; with Plasmodium falciparum [8], 56 nM; in the series with Plasmodium falciparum [10], 27 nM; in the series with Plasmodium falciparum [13], 34 nM.
In the case of `Fc1cc(C(Nc2ccnc3cc(C(F)(F)F)ccc23)c2ccc(Cl)cc2)ccc1CN1CCCC1` (racemic), the Activity in the series on Salmonella typhimurium [19] is on record as 4%; with Salmonella typhimurium [20], 4%; with Salmonella typhimurium [21], 3%; with Salmonella typhimurium [22], 4%; in the series on Salmonella typhimurium [23] it was 1%; in the series with Salmonella typhimurium [24], 8%. Moreover, the Activity in the series on Salmonella typhimurium [25] amounted to 1%; in the series with Salmonella typhimurium [26] it was 1%; in the series with Salmonella typhimurium [27], 1%; with Salmonella typhimurium [28], 4%; in the series on Salmonella typhimurium [29], 8%; in the series with Salmonella typhimurium [30] it was 1%. The values for the CC50 at 24 h in series [3] and in series [15] were 19000 nM and 34000 nM, respectively. Also, the IC50 was 76 nM with Plasmodium falciparum [4], 51 nM in the series on Plasmodium falciparum [8], 20 nM with Plasmodium falciparum [10] and 33 nM in the series with Plasmodium falciparum [13].
